# Source: ChEMBL document CHEMBL4342455, “Benwamycins A-G, Trialkyl-Substituted Benzene Derivatives from a Soil-Derived Streptomyces” (J Nat Prod, 2020)
# Activity calls are given as the source filed them. The rule behind the calls is not given here.
# Tests used:
# 3T3-L1 [1] = experiment: Induction of glucose uptake in mature mouse 3T3L1 adipocytes assessed as [3H]2-deoxy-D-glucose uptake at 25 uM preincubated for 24 hrs followed by [3H]2-deoxy-D-glucose additon and measured after 10 mins by scintillation counting method relative to control; format: functional
# T-cell = experiment: Immunosuppressive activity in anti-CD3/anti-CD28-stimulated human T cells assessed as reduction in cell viability after 96 hrs by CFSE dye based flow cytometric analysis; format: functional
# 3T3-L1 [2] = experiment: Induction of glucose uptake in mature mouse 3T3L1 adipocytes assessed as [3H]2-deoxy-D-glucose uptake at 10 uM preincubated for 24 hrs followed by [3H]2-deoxy-D-glucose additon and measured after 10 mins by scintillation counting method relative to control; format: functional
# [3] = Cytotoxicity against human naive T cells assessed as reduction in cell viability after 96 hrs by flow cytometric analysis; format: cell-based
SMILES,Activity (3T3-L1 [1]),Activity (T-cell),Activity (3T3-L1 [2]),CC50 at 96 h [3],IC50 (T-cell)
CC(=O)[C@@H](C)[C@H](O)[C@@H](C)c1ccc(C)cc1/C=C/CO,inactive,inactive,,,
COc1ccc2cc3[n+](cc2c1OC)CCc1cc2c(cc1-3)OCO2 [BERBERINE],,,25.5%,,
CC(=O)[C@@H](C)[C@H](O)[C@@H](C)c1ccc(CO)cc1/C=C/CO,inactive,inactive,,,
C[C@@H]([C@H](O)[C@@H](C)c1ccc(CO)cc1/C=C/CO)[C@H](C)O,inactive,inactive,,,
CC(=O)OCc1ccc([C@H](C)[C@@H](O)[C@H](C)C(C)=O)c(/C=C/CO)c1,28.4%,inactive,,,
CCC1=CC(=O)[C@@H](C)[C@@H]([C@@H](C)c2ccc(C)cc2/C=C/CO)O1,21.1%,,,> 80 µM,12.5 µM
CCC1=CC(=O)[C@@H](C)[C@@H]([C@@H](C)c2ccc(CO)cc2/C=C/CO)O1,inactive,inactive,,,
CCC(=O)O[C@@H]([C@H](C)C(C)=O)[C@@H](C)c1ccc(CO)cc1/C=C/CO,inactive,inactive,,,
Cc1ccc([C@H](C)[C@@H](O)[C@H](C)[C@H](C)O)c(/C=C/CO)c1,inactive,,,> 80 µM,14.3 µM
CCC(=O)O[C@@H]([C@H](C)C(C)=O)[C@@H](C)c1ccc(C)cc1/C=C/CO,inactive,inactive,,,
CC(=O)[C@@H](C)[C@H](O)[C@@H](C)c1ccc(C)cc1/C=C/C(=O)O,inactive,inactive,,,
